Test results taken from patent US11180521B2, “Nicotinamide riboside analogs, pharmaceutical compositions, and uses thereof” (Metro International Biotech, LLC, priority 2018, dated 2021).

Key:
[1] = PK/PD duration of effect study, single oral gavage dose: administered compound level in liver; type: in vivo, C57BL/6 mice; design: key to transcyclohexyl NaR dimer concentration: BQL: Below quantitation limit; BDL: Below Detection Limit, No Peak Detected
Procedure: (§1) Transcyclohexyl nicotinic acid riboside (NaR) dimer was administered by oral gavage at a dose of 500 mg/kg in an Ethanol/PBS, pH 7.4/PEG400 (10/30/60) vehicle. The dosing volume was 5 ml/kg at a solution concentration of 100 mg/ml. The solution concentration was increased for the presence of counterion.
(§2) Animals were fasted for 16 hours prior to dosing. Samples were collected pre-dose and at 0.25, 0.75, 1, 2, 4, 8 and 24 hr post dosing. Following euthanasia, the entire liver and skeletal muscle (gastrocnemius with attached soleus muscle, bilateral) were rinsed with 0.9% saline, and frozen for later bioanalysis. Samples were maintained frozen at −80° C. until bioanalysis.
(§3) Samples were thawed, homogenized, extracted and analyzed by LC-MS on the same day. The LC used was a Shimadzu Nexera UPLC, and the mass spectrometer was an AB Sciex Qtrap 6500. Specimens were analyzed for levels of administered compound (transcyclohexyl NaR dimer), as well as for levels of NAD, NAAD, NAM, and NMN by the method of standard addition, to detect alterations from the basal levels of the analytes. Calibration standards for quantifying administered compound were prepared using transcyclohexyl NaR dimer in mouse liver or skeletal muscle homogenates. Corresponding standards for quantifying other metabolites were also prepared. Data are calculated as the mean concentration from n=6 animals per time point.

[2] = system: NAD, NAAD, NAM, and NMN levels in liver; assay: PK/PD duration of effect study, single oral gavage dose: NAD, NAAD, NAM and NMN levels in liver; type: in vivo, C57BL/6 mice; design: key to NAAD concentration: BQL: Below quantitation limit; BDL: Below Detection Limit, No Peak Detected; settings: for NAAD concentration: pre-dose BDL
Procedure: as §1, §2, §3

What does the source list for `CC(=O)OC[C@H]1O[C@@H]([n+]2cccc(C(=O)O[C@H]3CC[C@H](OC(=O)c4ccc[n+]([C@@H]5O[C@H](COC(C)=O)[C@@H](OC(C)=O)[C@H]5OC(C)=O)c4)CC3)c2)[C@H](OC(C)=O)[C@@H]1OC(C)=O` [transcyclohexyl NaR dimer, Transcyclohexyl nicotinic acid riboside (NaR) dimer]?
transcyclohexyl NaR dimer concentration ([1]; 0.75 hr after 500 mg/kg oral gavage, pre-dose BQL): 0.000387 mmol/kg; transcyclohexyl NaR dimer concentration ([1]; 1 hr after 500 mg/kg oral gavage, pre-dose BQL): 0.000275 mmol/kg; transcyclohexyl NaR dimer concentration ([1]; 2 hr after 500 mg/kg oral gavage, pre-dose BQL): 0.0000706 mmol/kg; transcyclohexyl NaR dimer concentration ([1]; 4 hr after 500 mg/kg oral gavage, pre-dose BQL): BQL; transcyclohexyl NaR dimer concentration ([1]; 8 hr after 500 mg/kg oral gavage, pre-dose BQL): BQL; transcyclohexyl NaR dimer concentration ([1]; 24 hr after 500 mg/kg oral gavage, pre-dose BQL): BQL; Cmax ([1]; C57BL/6, mouse, 500 mg/kg oral gavage, read-out: Cmax of transcyclohexyl NaR dimer): 10600 ng/g; Tmax ([1]; C57BL/6, mouse, 500 mg/kg oral gavage, read-out: tmax of transcyclohexyl NaR dimer): 15 min; half-life ([1]; C57BL/6, mouse, 500 mg/kg oral gavage, regression points 0.75, 1, 2 h, read-out: t½ of transcyclohexyl NaR dimer (converted)): 30.5 min; concentration at 0.25 h ([1]; C57BL/6, mouse, 0.25 hr after 500 mg/kg oral gavage, pre-dose BQL, read-out: transcyclohexyl NaR dimer concentration): 10600 ng/g; concentration at 0.75 h ([1]; C57BL/6, mouse, 0.75 hr after 500 mg/kg oral gavage, pre-dose BQL, read-out: transcyclohexyl NaR dimer concentration): 327 ng/g; concentration at 1 h ([1]; C57BL/6, mouse, 1 hr after 500 mg/kg oral gavage, pre-dose BQL, read-out: transcyclohexyl NaR dimer concentration): 232 ng/g; concentration at 2 h ([1]; C57BL/6, mouse, 2 hr after 500 mg/kg oral gavage, pre-dose BQL, read-out: transcyclohexyl NaR dimer concentration): 60 ng/g; NMN concentration ([2]; 0.25 hr after 500 mg/kg oral gavage, pre-dose 0.00637): 0.00556 mmol/kg; NAM concentration ([2]; 0.25 hr after 500 mg/kg oral gavage, pre-dose 0.430): 0.481 mmol/kg; NAD concentration ([2]; 0.25 hr after 500 mg/kg oral gavage, pre-dose 1.08): 0.938 mmol/kg; NMN concentration ([2]; 0.25 hr after 500 mg/kg oral gavage, pre-dose 2.13): 1.86 µg/g; NAM concentration ([2]; 0.25 hr after 500 mg/kg oral gavage, pre-dose 52.5): 58.7 µg/g; NAD concentration ([2]; 0.25 hr after 500 mg/kg oral gavage, pre-dose 713): 623 µg/g; NAAD concentration ([2]; 0.25 hr after 500 mg/kg oral gavage): BDL; NMN concentration ([2]; 0.75 hr after 500 mg/kg oral gavage, pre-dose 0.00637): 0.00977 mmol/kg; NAM concentration ([2]; 0.75 hr after 500 mg/kg oral gavage, pre-dose 0.430): 1.69 mmol/kg; NAD concentration ([2]; 0.75 hr after 500 mg/kg oral gavage, pre-dose 1.08): 0.493 mmol/kg; NMN concentration ([2]; 0.75 hr after 500 mg/kg oral gavage, pre-dose 2.13): 3.26 µg/g; NAM concentration ([2]; 0.75 hr after 500 mg/kg oral gavage, pre-dose 52.5): 206 µg/g; NAD concentration ([2]; 0.75 hr after 500 mg/kg oral gavage, pre-dose 713): 327 µg/g; NAAD concentration ([2]; 0.75 hr after 500 mg/kg oral gavage): BDL; NMN concentration ([2]; 1 hr after 500 mg/kg oral gavage, pre-dose 0.00637): 0.00945 mmol/kg; NAM concentration ([2]; 1 hr after 500 mg/kg oral gavage, pre-dose 0.430): 1.48 mmol/kg; NAD concentration ([2]; 1 hr after 500 mg/kg oral gavage, pre-dose 1.08): 0.575 mmol/kg; NMN concentration ([2]; 1 hr after 500 mg/kg oral gavage, pre-dose 2.13): 3.16 µg/g; NAM concentration ([2]; 1 hr after 500 mg/kg oral gavage, pre-dose 52.5): 181 µg/g; NAD concentration ([2]; 1 hr after 500 mg/kg oral gavage, pre-dose 713): 381 µg/g; NAAD concentration ([2]; 1 hr after 500 mg/kg oral gavage): BDL; NMN concentration ([2]; 2 hr after 500 mg/kg oral gavage, pre-dose 0.00637): 0.00706 mmol/kg; NAM concentration ([2]; 2 hr after 500 mg/kg oral gavage, pre-dose 0.430): 0.660 mmol/kg; NAD concentration ([2]; 2 hr after 500 mg/kg oral gavage, pre-dose 1.08): 1.19 mmol/kg; NMN concentration ([2]; 2 hr after 500 mg/kg oral gavage, pre-dose 2.13): 2.36 µg/g; NAM concentration ([2]; 2 hr after 500 mg/kg oral gavage, pre-dose 52.5): 80.6 µg/g; NAD concentration ([2]; 2 hr after 500 mg/kg oral gavage, pre-dose 713): 787 µg/g; NMN concentration ([2]; 4 hr after 500 mg/kg oral gavage, pre-dose 0.00637): 0.0146 mmol/kg; NAM concentration ([2]; 4 hr after 500 mg/kg oral gavage, pre-dose 0.430): 0.791 mmol/kg; NAD concentration ([2]; 4 hr after 500 mg/kg oral gavage, pre-dose 1.08): 2.23 mmol/kg; NMN concentration ([2]; 4 hr after 500 mg/kg oral gavage, pre-dose 2.13): 4.87 µg/g; NAM concentration ([2]; 4 hr after 500 mg/kg oral gavage, pre-dose 52.5): 96.5 µg/g; NAD concentration ([2]; 4 hr after 500 mg/kg oral gavage, pre-dose 713): 1478 µg/g; NMN concentration ([2]; 8 hr after 500 mg/kg oral gavage, pre-dose 0.00637): 0.0250 mmol/kg; NAM concentration ([2]; 8 hr after 500 mg/kg oral gavage, pre-dose 0.430): 0.609 mmol/kg; NAD concentration ([2]; 8 hr after 500 mg/kg oral gavage, pre-dose 1.08): 4.92 mmol/kg; NMN concentration ([2]; 8 hr after 500 mg/kg oral gavage, pre-dose 2.13): 8.34 µg/g; NAM concentration ([2]; 8 hr after 500 mg/kg oral gavage, pre-dose 52.5): 74.3 µg/g; NAD concentration ([2]; 8 hr after 500 mg/kg oral gavage, pre-dose 713): 3267 µg/g; NMN concentration ([2]; 24 hr after 500 mg/kg oral gavage, pre-dose 0.00637): 0.00459 mmol/kg; NAM concentration ([2]; 24 hr after 500 mg/kg oral gavage, pre-dose 0.430): 0.381 mmol/kg; NAD concentration ([2]; 24 hr after 500 mg/kg oral gavage, pre-dose 1.08): 1.10 mmol/kg; NMN concentration ([2]; 24 hr after 500 mg/kg oral gavage, pre-dose 2.13): 1.53 µg/g; NAM concentration ([2]; 24 hr after 500 mg/kg oral gavage, pre-dose 52.5): 46.6 µg/g; NAD concentration ([2]; 24 hr after 500 mg/kg oral gavage, pre-dose 713): 731 µg/g; NAAD concentration ([2]; 24 hr after 500 mg/kg oral gavage): BDL
